# Laboratory results published in PMC12657321, “Pre-clinical evaluation of a potent and effective Pin1-degrading agent in pancreatic cancer” (Molecular Therapy Oncology, 2025).
# Non-standard residues stand in square brackets, D forms with d. Residues, ends and D or L forms follow the SMILES beside them. *: point of attachment. Trp(6-Cl) = N[C@@H](Cc1c[nH]c2cc(Cl)ccc12)C(=O)O; Pip = O=C(O)[C@@H]1CCCCN1; ClAc = O=C(CCl)*
# What was measured:
# [1] = 164B8 concentration in tissues of treated mice by LC-MS; format: in vivo, mouse; conditions: for 164B8 conc. (ng/mg) Predicted means (LS means) Adjacent Peritoneum / 164B8 conc. (ng/mg) Predicted means (LS means) Liver / 164B8 conc. (ng/mg) Predicted means (LS means) Tumor: 6 h after last dose, LC-MS, two-way ANOVA LS mean (Figure 7B)
# Protocol: To further verify that the observed activity was due to direct inhibition of Pin1 in vivo, we analyzed tumor tissues to measure 164B8 levels and Pin1 degradation in both tumor and normal tissues. At day 14, 6 h after the final intraperitoneal dose, 164B8 was detected and quantified in tumor tissue via liquid chromatography-mass spectrometry (LC-MS). Significant levels of 164B8 were detected in the liver, tumor-adjacent peritoneum, and tumor tissues collected from mice treated with either 30 mg/kg or 60 mg/kg (Figure 7A). The average tumor values were 0.62 ng/mg for mice treated with 30 mg/kg 164B8 and approximately 8 ng/mg for those treated with 60 mg/kg 164B8, compared with the vehicle control (0.03 ng/mg). In mice treated with 164B8 at 60 mg/kg, we observed enrichment of 164B8 in tumor tissues compared with adjacent normal tissues (mean: 3.65 vs. 8 ng/mg, p = 0.035) and normal liver tissues (mean: 0.75 vs. 8 ng/mg, p = 0.0003). For the 30 mg/kg dose, drug levels were numerically higher in tumor tissue (0.62 ng/mg) compared with adjacent normal peritoneum (0.11 ng/mg) and liver (0.10 ng/mg), although these differences were not statistically significant after adjustment for multiple comparisons (Figures 7A and 7B). Likewise, Pin1 levels in tumor tissues were detected via western blotting (Figure 7C).
# Figure 7 Determination of Pin1 levels and 164B8 concentration in treated mice Pin1 drug concentration and Pin1 levels in tumors were measured 6 h after the last dose of 164B8 treatment by LC-MS (A and B) and western blot (C), respectively. Drug concentrations among the three groups were compared using two-way ANOVA in Prism, accounting for interactions (D). Tukey’s multiple comparison test was used to compare multiple groups (∗∗∗p = 0.0003, ∗p = 0.035). Pin1 levels were compared among the three groups after normalizing to β-actin (loading control) using one-way ANOVA and adjusting for multiple comparisons (∗∗∗p < 0.001). TEXT PRINTED IN THE PICTURE: (B) 164B8: 164B8 conc. (ng/mg) Predicted means (LS means) Liver: 0.1017 (30mg/kg); 164B8 conc. (ng/mg) Predicted means (LS means) Adjacent Peritoneum: 0.1133 (30mg/kg); 164B8 conc. (ng/mg) Predicted means (LS means) Tumor: 0.6183 (30mg/kg); 164B8 conc. (ng/mg) Predicted means (LS means) Column means: 0.2778 (30mg/kg); 164B8 conc. (ng/mg) Predicted means (LS means) Liver: 0.7550 (60mg/kg); 164B8 conc. (ng/mg) Predicted means (LS means) Adjacent Peritoneum: 3.648 (60mg/kg); 164B8 conc. (ng/mg) Predicted means (LS means) Tumor: 8.005 (60mg/kg); 164B8 conc. (ng/mg) Predicted means (LS means) Column means: 4.136 (60mg/kg)
# Bioluminescent imaging (BLI) was performed one week post-inoculation. Based on imaging intensity, mice were re-grouped to ensure six animals per group. The PIN1 inhibitor was administered via intraperitoneal injection at doses of 30 mg/kg or 60 mg/kg, once daily, 5 days per week for 2 weeks. Tumor engraftment and growth were monitored by in vivo BLI. D-luciferin potassium salt was dissolved in sterile PBS to a final concentration of 16.6 mg/mL and mice were injected intraperitoneally with D-luciferin solution (0.139 g luciferin/kg body weight), then imaged 10–15 min after luciferin injection using an IVIS Spectrum Imaging System (Lago X) with identical exposure times and binning settings for all mice. Bioluminescence signal intensity was quantified as total flux (photons/s) within a region of interest (ROI) using Aura image software. BLI was performed once every week during the treatment. After 2 weeks of treatment, mice were euthanized 6 h after the final dose. Blood samples were collected via cardiac puncture, and normal peritoneum, intestine, and liver tissues were harvested and snap-frozen on dry ice.
# [2] = tested on: KPC cells; format: cell-based, mouse; conditions: 72 h
# Protocol: The effect of Pin1 degradation by 164B8 on cell viability was assessed using live-cell analysis (IncuCyte S3). […] Furthermore, to evaluate the acute single-dose toxicity of 164B8 in vivo, CD-1 immune-competent mice were exposed to increasing doses of 164B8. […] Therefore, a maximum tolerated dose was not reached (Figure S12).
# Figure S11: Mia PaCa-2 and KPC cells were treated with different doses of 164B8, and the
# IncuCyte S3 live-cell analysis system was used to monitor the agent’s activity every 3 hours for
# (1 picture or pasted object on this page, not shown here)
# [3] = target: Pin1 in BxPC3 cells (Homo sapiens, UniProt Q13526); experiment: Pin1 recovery after degradation, capillary electrophoresis immunoassay, BxPC3; format: cell-based; set-up: endogenous in cells; host or cells: BxPC3; conditions: BxPC3, 5 μM for 24 h, washed, serum-free media, 48 h after wash; two independent replicates
# Pin1 in BxPC3 cells, sequence (Q13526 whole entry): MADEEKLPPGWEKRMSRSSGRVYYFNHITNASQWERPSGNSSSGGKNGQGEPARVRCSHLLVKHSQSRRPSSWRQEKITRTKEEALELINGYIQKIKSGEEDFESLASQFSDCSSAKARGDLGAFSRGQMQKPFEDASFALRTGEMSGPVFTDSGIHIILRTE
# Protocol: To preliminarily assess the duration of Pin1 degradation in cancer cells, BxPC3 and KPC cells were treated with 164B8 for 24 h, washed, and then incubated in serum-free medium for various time points. Pin1 levels were then measured by capillary electrophoresis (Figure 3).
# Figure 3 Western blot-like images of Pin1 recovery after degradation by 164B8 using capillary electrophoresis immunoassay (A) BxPC3 cells were pretreated with either 0.1% DMSO or 5 μM 164B8 for 24 h before washing and incubating in serum-free media to evaluate Pin1 recovery at 0, 6, 12, 24, and 48 h. (B) The experiment was performed in two independent replicates, and the results are plotted with the associated standard deviation. (C and D), as in (A) and (B), respectively, but testing the agents against the KPC cell line.
# For capillary electrophoresis immunoassays (Figure 3), following protein quantification via the bicinchoninic acid (BCA) assay, the Jess Simple Western instrument (Protein Simple, Bio-Techne, Minneapolis, MN, USA) was utilized according to the manufacturer’s protocol for the 12–230 kDa separation module (SM-W001, Bio-Techne). […] The resulting data were analyzed using Compass for Simple Western software (v.6.3.0), utilizing the default high dynamic range 4.0 image settings and Gaussian peak fitting to obtain the area under each curve for quantification and analysis.
structure (smiles),measurement,setting,value
CNC(=O)[C@H](Cc1c[nH]c2ccccc12)NC(=O)[C@@H]1CCCCN1C(=O)[C@H](Cc1c[nH]c2cc(Cl)ccc12)NC(=O)CCl [164B8] (ClAc-[Trp(6-Cl)]-[Pip]-Trp-NHMe),164B8 conc. (ng/mg) Predicted means (LS means) Adjacent Peritoneum,[1]; 30mg/kg,0.1133 ng/mg
same,164B8 conc. (ng/mg) Predicted means (LS means) Liver,[1]; 30mg/kg,0.1017 ng/mg
same,164B8 conc. (ng/mg) Predicted means (LS means) Tumor,[1]; 30mg/kg,0.6183 ng/mg
same,164B8 conc. (ng/mg) Predicted means (LS means) Adjacent Peritoneum,[1]; 60mg/kg,3.648 ng/mg
same,164B8 conc. (ng/mg) Predicted means (LS means) Liver,[1]; 60mg/kg,0.7550 ng/mg
same,164B8 conc. (ng/mg) Predicted means (LS means) Tumor,[1]; 60mg/kg,8.005 ng/mg
same,164B8 conc. (ng/mg) Predicted means (LS means) Column means,"[1]; 60mg/kg, mean over liver, adjacent peritoneum and tumor (Figure 7B)",4.136 ng/mg
same,EC50,[2],5.3 µM
same,Pin1 levels restored after exposure and wash-out,[3],approximately 50%
